According to US12077503B2, “Substituted cyclic amides and their use as herbicides” (FMC CORPORATION, priority 2015, dated 2024):
Read-outs that look alike come from different tables or passages of the source.

Tests used:
Assay type in all cases: in vivo
[1] = system: Galium (catchweed bedstraw, Galium aparine); test: Test A postemergence; details: Galium, post-emergence, 240 h; for pest or weed control at 125 g/ha: 125 g ai/ha; for pest or weed control at 500 g/ha: 500 g ai/ha, visual injury, approx. 10 d
Procedure, shortened: (§1)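 In a loam soil and sand blend, planted seeds got a preemergence directed soil spray, and young plants at the one- to two-leaf stage, 2–10 cm high, got a postemergence application; ~10 d greenhouse hold; injury rated visually, 0 = none, 100 = complete control.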

[2] = system: Kochia (Kochia scoparia); test: Test A postemergence; details: Bassia scoparia, post-emergence, 240 h; for pest or weed control at 125 g/ha: 125 g ai/ha; for pest or weed control at 500 g/ha: 500 g ai/ha, visual injury, approx. 10 d
Procedure, shortened: as §1

[3] = system: barnyardgrass (Echinochloa crus-galli); test: Test A postemergence; details: Echinochloa crus-galli, post-emergence, 240 h; for pest or weed control at 125 g/ha: 125 g ai/ha
Procedure, shortened: as §1

[4] = system: blackgrass (Alopecurus myosuroides); test: Test A postemergence; details: Alopecurus myosuroides, post-emergence, 240 h; for pest or weed control at 125 g/ha: 125 g ai/ha
Procedure, shortened: as §1

[5] = system: corn (Zea mays); test: Test A postemergence; details: Zea mays, post-emergence, 240 h; for Corn plant response rating (crop injury, 0 = no effect, 100 = complete kill) at 125 g/ha / plant injury at 125 g/ha: 125 g ai/ha; for Corn plant response rating (crop injury, 0 = no effect, 100 = complete kill) at 125 g/ha: postemergence, visual injury after approximately 10 d; for Corn plant response rating (crop injury, 0 = no effect, 100 = complete kill) at 125 g/ha / Corn plant response rating (crop injury, 0 = no effect, 100 = complete kill) at 500 g/ha: 0 to 100 scale (0 no effect, 100 complete control); for plant injury at 125 g/ha / Corn plant response rating (crop injury, 0 = no effect, 100 = complete kill) at 500 g/ha: Postemergence; for plant injury at 125 g/ha: visual rating about 10 d after treatment, read-out: Corn plant response rating (0 to 100 scale); for Corn plant response rating (crop injury, 0 = no effect, 100 = complete kill) at 500 g/ha: 500 g ai/ha, visual injury, approx. 10 d
Procedure, shortened: as §1

[6] = system: giant foxtail (Setaria faberii); test: Test A postemergence; details: Setaria faberi, post-emergence, 240 h; for pest or weed control at 125 g/ha: 125 g ai/ha; for pest or weed control at 500 g/ha: 500 g ai/ha, visual injury, approx. 10 d
Procedure, shortened: as §1

[7] = system: pigweed (Amaranthus retroflexus); test: Test A postemergence; details: Amaranthus retroflexus, post-emergence, 240 h; for pest or weed control at 125 g/ha: 125 g ai/ha; for pest or weed control at 500 g/ha: 500 g ai/ha, visual injury, approx. 10 d
Procedure, shortened: as §1

[8] = system: ragweed (common ragweed, Ambrosia elatior); test: Test A postemergence; details: Ambrosia artemisiifolia, post-emergence, 240 h; for pest or weed control at 125 g/ha: 125 g ai/ha; for pest or weed control at 500 g/ha: 500 g ai/ha, visual injury, approx. 10 d
Procedure, shortened: as §1

[9] = system: ryegrass, Italian (Italian ryegrass, Lolium multiflorum); test: Test A postemergence; details: Lolium multiflorum, post-emergence, 240 h; for pest or weed control at 125 g/ha: 125 g ai/ha; for pest or weed control at 500 g/ha: 500 g ai/ha, visual injury, approx. 10 d
Procedure, shortened: as §1

[10] = system: wheat (Triticum aestivum); test: Test A postemergence; details: Triticum aestivum, post-emergence, 240 h; for plant injury at 125 g/ha: 125 g ai/ha; for plant injury at 500 g/ha: 500 g ai/ha, visual injury, approx. 10 d
Procedure, shortened: as §1

[11] = system: barnyardgrass (Echinochloa crus-galli); test: Test B flooded paddy test; details: Echinochloa crus-galli, Flood, 250 g ai/ha
Procedure, shortened: (§2)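 Plants at 2-leaf stage flooded to 3 cm above soil, with compounds applied directly to paddy water and that depth maintained. Plants kept in greenhouse 13–15 d. Visual rating versus controls on a 0 (no effect) to 100 (complete control) scale.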

[12] = system: ducksalad (Heteranthera limosa); test: Test B flooded paddy test; details: Heteranthera limosa, Flood, 250 g ai/ha
Procedure, shortened: as §2

[13] = system: rice (Oryra sativa); test: Test B flooded paddy test; details: Oryza sativa, Flood, 250 g ai/ha
Procedure, shortened: as §2

[14] = system: sedge, umbrella (small-flower umbrella sedge, Cyperus difformis); test: Test B flooded paddy test; details: Cyperus difformis, Flood, 250 g ai/ha
Procedure, shortened: as §2

[15] = postemergence, visual injury after approximately 10 d, 0 to 100 scale (0 no effect, 100 complete control), read-out: Plant response rating, Galium
[16] = postemergence, visual injury after approximately 10 d, 0 to 100 scale (0 no effect, 100 complete control), read-out: Plant response rating, Kochia
[17] = postemergence, visual injury after approximately 10 d, 0 to 100 scale (0 no effect, 100 complete control), read-out: Plant response rating, Barnyardgrass
[18] = postemergence, visual injury after approximately 10 d, 0 to 100 scale (0 no effect, 100 complete control), read-out: Plant response rating, Blackgrass
[19] = postemergence, visual injury after approximately 10 d, 0 to 100 scale (0 no effect, 100 complete control), read-out: Plant response rating, Foxtail, Giant
[20] = postemergence, visual injury after approximately 10 d, 0 to 100 scale (0 no effect, 100 complete control), read-out: Plant response rating, Pigweed
[21] = postemergence, visual injury after approximately 10 d, 0 to 100 scale (0 no effect, 100 complete control), read-out: Plant response rating, Ragweed
[22] = postemergence, visual injury after approximately 10 d, 0 to 100 scale (0 no effect, 100 complete control), read-out: Plant response rating, Ryegrass, Italian
[23] = scale of 0 to 100 where 0 is no effect and 100 is complete control, read-out: Barnyardgrass plant response rating
[24] = scale of 0 to 100 where 0 is no effect and 100 is complete control, read-out: Ducksalad plant response rating
[25] = scale of 0 to 100 where 0 is no effect and 100 is complete control, read-out: Rice plant response rating
[26] = scale of 0 to 100 where 0 is no effect and 100 is complete control, read-out: Sedge, Umbrella plant response rating
[27] = Postemergence, visual rating about 10 d after treatment, read-out: Galium plant response rating (0 to 100 scale)
[28] = Postemergence, 0 to 100 scale (0 no effect, 100 complete control), read-out: Plant response rating, Galium
[29] = Postemergence, visual rating about 10 d after treatment, read-out: Kochia plant response rating (0 to 100 scale)
[30] = Postemergence, 0 to 100 scale (0 no effect, 100 complete control), read-out: Plant response rating, Kochia
[31] = Postemergence, visual rating about 10 d after treatment, read-out: Foxtail, Giant plant response rating (0 to 100 scale)
[32] = Postemergence, 0 to 100 scale (0 no effect, 100 complete control), read-out: Plant response rating, Foxtail, Giant
[33] = Postemergence, visual rating about 10 d after treatment, read-out: Pigweed plant response rating (0 to 100 scale)
[34] = Postemergence, 0 to 100 scale (0 no effect, 100 complete control), read-out: Plant response rating, Pigweed
[35] = Postemergence, visual rating about 10 d after treatment, read-out: Ragweed plant response rating (0 to 100 scale)
[36] = Postemergence, 0 to 100 scale (0 no effect, 100 complete control), read-out: Plant response rating, Ragweed
[37] = Postemergence, visual rating about 10 d after treatment, read-out: Ryegrass, Italian plant response rating (0 to 100 scale)
[38] = Postemergence, 0 to 100 scale (0 no effect, 100 complete control), read-out: Plant response rating, Ryegrass, Italian
[39] = Postemergence, visual rating about 10 d after treatment, read-out: Wheat plant response rating (0 to 100 scale)
[40] = Postemergence, 0 to 100 scale (0 no effect, 100 complete control), read-out: Plant response rating, Wheat
[41] = 360 h, visually evaluated after 13 to 15 d, read-out: Plant response rating, Sedge, Umbrella (0 to 100 scale where 0 is no effect and 100 is complete control)

| Compound | pest or weed control at 125 g/ha [1, 15] | pest or weed control at 125 g/ha [2, 16] | pest or weed control at 125 g/ha [3, 17] | pest or weed control at 125 g/ha [4, 18] | Corn plant response rating (crop injury, 0 = no effect, 100 = complete kill) at 125 g/ha [5] | pest or weed control at 125 g/ha [6, 19] | pest or weed control at 125 g/ha [7, 20] | pest or weed control at 125 g/ha [8, 21] | pest or weed control at 125 g/ha [9, 22] | pest or weed control at 250 g/ha [11, 23] | pest or weed control at 250 g/ha [12, 24] | pest or weed control at 250 g/ha [13, 25] | pest or weed control at 250 g/ha [14, 26] | pest or weed control at 125 g/ha [1, 27] | pest or weed control at 500 g/ha [1, 28] | pest or weed control at 125 g/ha [2, 29] | pest or weed control at 500 g/ha [2, 30] | plant injury at 125 g/ha [5] | Corn plant response rating (crop injury, 0 = no effect, 100 = complete kill) at 500 g/ha [5] | pest or weed control at 125 g/ha [6, 31] | also measured |
| --- | --- | --- | --- | --- | --- | --- | --- | --- | --- | --- | --- | --- | --- | --- | --- | --- | --- | --- | --- | --- | --- |
| CN1C[C@H](c2cc(F)cc(F)c2)[C@@H](C(=O)NC2CCc3ccccc32)C1=O (some centres unmarked) [Compound 755] | 0% | 0% | 0% | 0% | 0% | 0% | 0% | 0% | 0% | 0% | 0% | 0% | 0% | – | – | – | – | – | – | – | plant injury at 125 g/ha ([10]; postemergence, visual injury after approximately 10 d, 0 to 100 scale (0 no effect, 100 complete control), read-out: Plant response rating, Wheat): 0% |
| CN1C[C@H](c2ccc(OC(F)F)cc2)[C@@H](C(=O)Nc2ccccc2S(C)(=O)=O)C1=O [Compound 788] | 50% | 40% | 80% | 20% | 20% | 70% | 60% | 40% | 20% | 20% | 60% | 0% | 0% | – | – | – | – | – | – | – | – |
| O=C1NC[C@H](c2ccc(OC(F)F)cc2)[C@H]1C(=O)Nc1ccc(F)cc1F [Compound 1325] | – | – | – | – | – | – | – | – | – | – | – | – | – | 80% | 90% | 70% | 80% | 0% | 50% | 80% | pest or weed control at 125 g/ha ([3]; Postemergence, visual rating about 10 d after treatment, read-out: Barnyardgrass plant response rating (0 to 100 scale, 0 no effect, 100 complete control)): 90%; pest or weed control at 500 g/ha ([3]; Postemergence, 500 g ai/ha, visual injury, 0 to 100 scale (0 no effect, 100 complete control), approx. 10 d, read-out: Plant response rating, Barnyardgrass): 90%; pest or weed control at 500 g/ha [6, 32]: 90%; pest or weed control at 125 g/ha [7, 33]: 70%; pest or weed control at 500 g/ha [7, 34]: 90%; pest or weed control at 125 g/ha [8, 35]: 0%; pest or weed control at 500 g/ha [8, 36]: 0%; pest or weed control at 125 g/ha [9, 37]: 0%; pest or weed control at 500 g/ha [9, 38]: 0%; plant injury at 125 g/ha [10, 39]: 0%; plant injury at 500 g/ha [10, 40]: 0%; pest or weed control at 250 g/ha ([11]; 0 to 100 scale where 0 is no effect and 100 is complete control, read-out: Barnyardgrass plant response rating): 15%; pest or weed control at 250 g/ha ([12]; 0 to 100 scale where 0 is no effect and 100 is complete control, read-out: Ducksalad plant response rating): 100%; pest or weed control at 250 g/ha ([13]; 0 to 100 scale where 0 is no effect and 100 is complete control, read-out: Rice plant response rating): 0%; pest or weed control at 250 g/ha [14, 41]: 0% |
| CN1C[C@H](c2ccc(C(F)(F)F)nc2)[C@@H](C(=O)Nc2cccc(F)c2F)C1=O [Compound 1372] | – | – | – | – | – | – | – | – | – | – | – | – | – | 60% | 70% | 70% | 80% | 70% | 90% | 90% | pest or weed control at 125 g/ha ([4]; Postemergence, visual rating about 10 d after treatment, read-out: Blackgrass plant response rating (0 to 100 scale)): 50%; pest or weed control at 500 g/ha ([4]; Postemergence, 500 g ai/ha, visual injury, 0 to 100 scale (0 no effect, 100 complete control), approx. 10 d, read-out: Plant response rating, Blackgrass): 70%; pest or weed control at 500 g/ha [6, 32]: 90%; pest or weed control at 125 g/ha [7, 33]: 60%; pest or weed control at 500 g/ha [7, 34]: 80%; pest or weed control at 125 g/ha [8, 35]: 60%; pest or weed control at 500 g/ha [8, 36]: 60%; pest or weed control at 125 g/ha [9, 37]: 20%; pest or weed control at 500 g/ha [9, 38]: 30%; plant injury at 125 g/ha [10, 39]: 70%; plant injury at 500 g/ha [10, 40]: 90%; pest or weed control at 250 g/ha ([11]; 360 h, visually evaluated after 13 to 15 d, read-out: Plant response rating, Barnyardgrass (0 to 100 scale where 0 is no effect and 100 is complete control)): 80%; pest or weed control at 250 g/ha ([12]; 360 h, visually evaluated after 13 to 15 d, read-out: Plant response rating, Ducksalad (0 to 100 scale where 0 is no effect and 100 is complete control)): 85%; pest or weed control at 250 g/ha ([13]; 360 h, visually evaluated after 13 to 15 d, read-out: Plant response rating, Rice (0 to 100 scale where 0 is no effect and 100 is complete control)): 40%; pest or weed control at 250 g/ha [14, 41]: 0% |
